Drawing on patent EP4772514A1, “MACROCYCLIC COMPOUNDS, PREPARATION METHOD THEREFOR, AND USE THEREOF” (Genfleet Therapeutics (Shanghai) Inc., priority 2023, dated 2025), this text covers IC50 for ten molecules.

What is called IC50 is the concentration needed to halve the response being measured. A high value points to lower potency.

The test system of the assay is p-ERK. Briefly: Cell p-ERK assay (HTRF, Advance ERK phospho-T202/Y204 kit) in NCI-H441 cells. The assay is classed as cell-based. The conditions noted are these: Homo sapiens, NCI-H441, 3 h, NCI-H441, human non-small cell lung cancer cell strain, KRAS G12V mutation; 3 h compound incubation. As for the experimental part: AsPC-1 cells were purchased from ATCC, Cat. No. CRL-1682; NCI-H441 cells were purchased from ATCC, Cat. No. HTB-174; RPMI-1640 medium was purchased from Gibco, Cat. No. 11875-093; FBS was purchased from Gibco, Cat. No. 10099-141C; penicillin/streptomycin double-antibiotic solution (PS) was purchased from Gibco, Cat. No. 15140-122; trypsin (containing EDTA) was purchased from Gibco, Cat. No. 25200-072; DMSO was purchased from VWRAMRESCO, Cat. No. 0231-500ML; 96-well cell culture plates were purchased from Corning, Cat. No. 3599; white-bottomed, opaque 96-well plates were purchased from Cisbio, Cat. No. 66PL96025; Advance ERK phospho-T202/Y204 kit was purchased from Cisbio, Cat. No. 64AERPEH; cell counter was purchased from CHEMOMETEC, model: NC-200; microplate reader was purchased from PerkinElmer, model: EnVision.
AsPC-1, a human pancreatic cancer cell strain endogenously containing a KRAS^G12D mutation, was cultured in a complete medium containing RPMI-1640 + 10% FBS + 1% PS. NCI-H441, a human non-small cell lung cancer cell strain endogenously containing a KRAS^G12V mutation, was cultured in a complete medium containing RPMI-1640 + 10% FBS + 1% PS.
The cells were digested with trypsin (containing EDTA), collected in their corresponding complete media, and counted. The density of the cell suspensions was adjusted with their corresponding complete media, and AsPC-1 cells (10000 cells/well) or NCI-H441 cells (20000 cells/well) were seeded into a 96-well cell culture plate, with the volume of the medium in each well being 80 µL. The cell culture plate was incubated in an incubator at 37 °C with 5% CO2 overnight. A series of 3.16-fold gradient dilutions of a 1000× compound stock solution were prepared with DMSO, and then diluted 200-fold with the complete medium described above to give 5× compound stock solutions. On the day after cell seeding, 20 µL of the 5× compound stock solution was added to each cell culture well. As a result, the final concentration of the compound in the cell culture well became 1×, and the DMSO content in the well was 0.1%. In addition to the compound-treated wells described above, cell-containing DMSO control wells were also set. A complete medium containing 0.5% DMSO was added at 20 µL/well. After the mixture was well mixed, the culture plate was incubated in the incubator at 37 °C with 5% CO2 for another 3 h. The medium was then removed from the culture wells, and 50 µL of cell lysis buffer (from Advance ERK phospho-T202/Y204 kit) was added to each well. The mixture was well mixed, incubated for 30 min, and then transferred to a white-bottomed, opaque 96-well assay plate at 16 µL/well, and separately, 16 µL of cell lysis buffer was added to additional wells (serving as blank wells) in the assay plate. After the transfer was completed, 4 µL of p-ERK HTRF antibody mixture (from Advance ERK phospho-T202/Y204 kit) was added to each well of the assay plate, followed by a 4-hour incubation. The HTRF signal values (RLU) were then measured using a microplate reader, and the inhibition rate of the compound against p-ERK levels was calculated as follows: IR(%) = (RLUDMSO - RLUcompound)/(RLUDMSO - RLUblank) × 100%, where RLUDMSO is the average HTRF signal value from the DMSO control well samples, RLU is the average HTRF signal value from the blank well samples, and RLUcompound is the HTRF signal value from the compound-treated well samples. Using an XLfit software, the IR(%) values were plotted against the logarithm of the compound concentrations, and the dose-response curves were fitted using the four-parameter method to calculate the IC50 values.
(TR-FRET usually uses a lanthanide donor and a delayed reading to cut background.)
`CO[C@@H](C)c1ncc(C#CCN2CCS(=O)(=O)CC2)cc1-c1c2c(nn1C(C)C)/C=C/c1csc(n1)C[C@H](NC(=O)[C@H](C(C)C)N(C)c1ccc3ccccc3c1)C(=O)N1CCC[C@H](N1)C(=O)OCC(C)(C)C2` (atropisomer, axis not shown; (Ra)) [Compound Z60] had an IC50 of 0.261 µM.
Then `CO[C@@H](C)c1ncc(C#CCN2CCS(=O)(=O)CC2)cc1-c1c2c(nn1C(C)C)/C=C/c1csc(n1)C[C@H](NC(=O)[C@H](C(C)C)N(C)c1cccc(C)c1)C(=O)N1CCC[C@H](N1)C(=O)OCC(C)(C)C2` (atropisomer, axis not shown; (Ra)) [Compound Z59, (2S)-N-((4^2Z,8^3S,2E,6S)-1^5-(Ra)-(5-(3-(1,1-dioxidothiomorpholino)prop-1-yn-1-y1)-2-((S)-1-methoxyethyl)pyridin-3-yl)-1^1-isopropyl-12,12-dimethyl-7,9-dioxo-8^1,8^2,8^3,8^4,8^5,8^6-hexahydro-1^1H-10-oxa-4(4,2)-thiazola-8(1,3)-pyridazina-1(3,4)-pyrazolocyclotridec-2-en-6-yl)-3-methyl-2-(methyl(m-tolyl)amino)butanamide], with 0.0492 µM; and `CCn1nc2c(c1-c1cc(C#CCN3CCS(=O)(=O)CC3)cnc1[C@H](C)OC)CC(C)(C)COC(=O)[C@@H]1CCCN(N1)C(=O)[C@@H](NC(=O)[C@H](C(C)C)N(C)c1ccncc1)Cc1nc(cs1)/C=C/2` (atropisomer, axis not shown; (Ra)) [Compound Z122, (2S)-N-((4^2Z,8^3S,2E,6S)-(Ra)-1^5-(5-(3-(1,1-dioxidothiomorpholino)prop-1-yn-1-yl)-2-((S)-1-methoxyethyl)pyridin-3-yl)-1^1-ethyl-12,12-dimethyl-7,9-dioxo-8^1,8^2,8^3,8^4,8^5,8^6-hexahydro-1^1H-10-oxa-4(4,2)-thiazola-8(1,3)-pyridazina-1(3,4)-pyrazolocyclotridec-2-en-6-yl)-3-methyl-2-(methyl(pyridin-4-yl)amino)butanamide], with 0.181 µM; and `CCn1nc2c(c1-c1cc(C#CCN3CCS(=O)(=O)CC3)cnc1[C@H](C)OC)CC(C)(C)COC(=O)[C@@H]1CCCN(N1)C(=O)[C@@H](NC(=O)[C@@H](Cc1ccccc1)C(C)C)Cc1nc(cs1)/C=C/2` (atropisomer, axis not shown; (Ra)) [Compound Z127, (2S)-2-benzyl-N-((4^2Z,8^3S,2E,6S)-(Ra)-1^5-(5-(3-(1,1-dioxidothiomorpholino)prop-1-yn-1-yl)-2-((S)-1-methoxyethyl)pyridin-3-yl)-1^1-ethyl-12,12-dimethyl-7,9-dioxo-8^1,8^2,8^3,8^4,8^5,8^6-hexahydro-1^1H-10-oxa-4(4,2)-thiazola-8(1,3)-pyridazina-1(3,4)-pyrrolacyclotridecaphan-2-en-6-yl)-3-methylbutanamide], with 0.104 µM.
Then `CO[C@@H](C)c1ncc(C#CCN2CCS(=O)(=O)CC2)cc1-c1c2c(nn1C(C)C)/C=C/c1csc(n1)C[C@H](NC(=O)[C@H](C(C)C)N(C)C(=O)Cc1cccc3ccsc13)C(=O)N1CCC[C@H](N1)C(=O)OCC(C)(C)C2` (single isomer, unassigned) [Compound Z120], with 0.513 µM; and `COC[C@H]1CCN1C(=O)N[C@H]1Cc2nc(cs2)/C=C/c2nn(C(C)C)c(-c3cc(C#CCN4CCS(=O)(=O)CC4)cnc3[C@H](C)OC)c2CC(C)(C)COC(=O)[C@@H]2CCCN(N2)C1=O` [Compound Z41, (2R)-N-((4^2Z,8^3S,2E,6S)-1^5-(5-(3-(1,1-dioxidothiomorpholino)prop-1-yn-1-yl)-2-((S)-1-methoxyethyl)pyridin-3-yl)-1^1-isopropyl-12,12-dimethyl-7,9-dioxo-8^1,8^2,8^3,8^4,8^5,,8^6-hexahydro-1^1H-10-oxa-4(4,2)-thiazola-8(1,3)-pyridazina-1(3,4)-pyrrolacyclotridecaphan-2-en-6-yl)-2-(methoxymethyl)azetidine-1-carboxamide], with 0.356 µM; and `CCn1nc2c(c1-c1cc(C#CCN3CCS(=O)(=O)CC3)cnc1[C@H](C)OC)CC(C)(C)COC(=O)[C@@H]1CCCN(N1)C(=O)[C@@H](NC(=O)[C@H](C(C)C)N(C)C1CCCC1)Cc1nc(cs1)/C=C/2` (atropisomer, axis not shown; (Ra)) [Compound Z58, (2S)-2-(cyclopentyl(methyl)amino)-N-((4^2Z,8^3S,2E,6S)-(Ra)-1^5-(5-(3-(1,1-dioxidothiomorpholine)prop-1-yn-1-yl)-2-((S)-1-methoxyethyl)pyridin-3-yl)-1^1-ethyl-12,12-dimethyl-7,9-dioxo-8^1,8^2,8^3,8^4,8^5,8^6-hexahydro-1^1H-10-oxa-4(4,2)-thiazola-8(1,3)-pyridazina-1(3,4)-pyrazolecyclotridec-2-en-6-yl)-3-methylbutanamide], with 0.0557 µM.
On to `CO[C@@H](C)c1ncc(C#CCN2CCS(=O)(=O)CC2)cc1-c1c2c(nn1C(C)C)/C=C/c1csc(n1)C[C@H](NC(=O)[C@H](C(C)C)N(C)c1ccc(C)cc1)C(=O)N1CCC[C@H](N1)C(=O)OCC(C)(C)C2` (atropisomer, axis not shown; (Ra)) [Compound Z61, (2S)-N-((4^2Z,8^3S,2E,6S)-1^5-(Ra)-(5-(3-(1,1-dioxidothiomorpholino)prop-1-yn-1-yl)-2-((S)-1-methoxyethyl)pyridin-3-yl)-1^1-isopropyl-12,12-dimethyl-7,9-dioxo-8^1,8^2,8^3,8^4,8^5,8^6-hexahydro-1^1H-10-oxa-4(4,2)-thiazola-8(1,3)-pyridazina-1(3,4)-pyrazolocyclotridec-2-en-6-yl)-3-methyl-2-(methyl(p-tolyl)amino)butanamide], for which the IC50 turned out to be 0.0699 µM.
Next, `CCn1nc2c(c1-c1cc(C#CCN3CCS(=O)(=O)CC3)cnc1[C@H](C)OC)CC(C)(C)COC(=O)[C@@H]1CCCN(N1)C(=O)[C@@H](NC(=O)[C@H](C(C)C)N(C)c1cccnc1)Cc1nc(cs1)/C=C/2` (atropisomer, axis not shown; (Ra)) [Compound Z123, (2S)-N-((4^2Z,8^3S,2E,6S)-(Ra)-1^5-(5-(3-(1,1-dioxidothiomorpholino)prop-1-yn-1-yl)-2-((S)-1-methoxyethyl)pyridin-3-yl)-1^1-ethyl-12,12-dimethyl-7,9-dioxo-8^1,8^2,8^3,8^4,8^5,8^6-hexahydro-1^1H-10-oxa-4(4,2)-thiazola-8(1,3)-pyridazina-1(3,4)-pyrazolocyclotridec-2-en-6-yl)-3-methyl-2-(methyl(pyridin-3-yl)amino)butanamide]: 0.00463 µM.
`CCn1nc2c(c1-c1cc(C#CCN3CCS(=O)(=O)CC3)cnc1[C@H](C)OC)CC(C)(C)COC(=O)[C@@H]1CCCN(N1)C(=O)[C@@H](NC(=O)[C@H](C(C)C)N(C)c1ccc(F)cc1)Cc1nc(cs1)/C=C/2` (atropisomer, axis not shown; (Ra)) [Compound Z124, (2S)-N-((4^2Z,8^3S,2E,6S)-(Ra)-1^5-(5-(3-(1,1-dioxidomorpholinyl)prop-1-yn-1-yl)-2-((S)-1-methoxyethyl)pyridin-3-yl)-1^1-ethyl-12,12-dimethyl-7,9-dioxo-8^1,8^2,8^4,8^5,8^6-hexahydro-1^1H-10-oxa-4(4,2)-thiazola-8(1,3)-pyridazina-1(3,4)-pyrrolacyclotridecaphan-2-en-6-yl)-2-[(4-fluorophenyl)(methyl)amino]-3-methylbutanamide] returned an IC50 of 0.00205 µM.
